# Calls of active or inactive are those of the source.
# Key:
# Cytochrome P450 2C19 = Cytochrome P450 2C19 (Homo sapiens, UniProt P33261); assay: Cytochrome panel assay with activity outcomes. Panel member name: p450-cyp2c19 Compounds with AC50 equal or less than 10 uM are considered active; format: functional
# Cytochrome P450 3A4 = Cytochrome P450 3A4 (Homo sapiens, UniProt P08684);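 note: CYP3A4 tested as one member of a cytochrome P450 panel screen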
# Cytochrome P450 2C9 = Cytochrome P450 2C9 (Homo sapiens, UniProt P11712)
# Sequence of Cytochrome P450 2C9 (P11712 whole entry): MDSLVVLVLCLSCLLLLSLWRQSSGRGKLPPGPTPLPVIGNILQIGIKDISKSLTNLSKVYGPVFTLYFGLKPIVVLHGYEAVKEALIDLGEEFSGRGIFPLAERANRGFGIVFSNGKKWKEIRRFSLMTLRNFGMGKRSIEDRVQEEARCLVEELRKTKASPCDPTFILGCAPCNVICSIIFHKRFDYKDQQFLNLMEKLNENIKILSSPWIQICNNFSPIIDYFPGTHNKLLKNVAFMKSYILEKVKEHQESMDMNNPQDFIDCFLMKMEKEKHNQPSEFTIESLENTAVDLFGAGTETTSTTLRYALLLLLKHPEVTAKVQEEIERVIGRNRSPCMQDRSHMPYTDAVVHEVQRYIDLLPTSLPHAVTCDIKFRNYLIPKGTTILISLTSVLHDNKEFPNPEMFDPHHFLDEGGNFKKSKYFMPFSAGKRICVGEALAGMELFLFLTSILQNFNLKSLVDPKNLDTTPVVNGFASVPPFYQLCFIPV
# [1] = NIH-3T3 fibroblast cytotoxicity, dose response, cytotoxicity control, cell-based, fluorescence, Alamar Blue, secondary assay (AID 2327); format: functional;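 note: NIH-3T3 mouse fibroblasts cultured with fluconazole at 8 µg/mL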
# [2] = fluconazole-exposed Candida albicans growth modulators – fluorescence, retest, confirmation (AID 2467); format: functional, cell-based
# Cytochrome P450 1A2 = target: T1, Cytochrome P450 1A2 (Homo sapiens, UniProt P05177);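 note: PubChem cytochrome P450 panel assay, CYP1A2 panel member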
# T1 sequence (P05177 whole entry): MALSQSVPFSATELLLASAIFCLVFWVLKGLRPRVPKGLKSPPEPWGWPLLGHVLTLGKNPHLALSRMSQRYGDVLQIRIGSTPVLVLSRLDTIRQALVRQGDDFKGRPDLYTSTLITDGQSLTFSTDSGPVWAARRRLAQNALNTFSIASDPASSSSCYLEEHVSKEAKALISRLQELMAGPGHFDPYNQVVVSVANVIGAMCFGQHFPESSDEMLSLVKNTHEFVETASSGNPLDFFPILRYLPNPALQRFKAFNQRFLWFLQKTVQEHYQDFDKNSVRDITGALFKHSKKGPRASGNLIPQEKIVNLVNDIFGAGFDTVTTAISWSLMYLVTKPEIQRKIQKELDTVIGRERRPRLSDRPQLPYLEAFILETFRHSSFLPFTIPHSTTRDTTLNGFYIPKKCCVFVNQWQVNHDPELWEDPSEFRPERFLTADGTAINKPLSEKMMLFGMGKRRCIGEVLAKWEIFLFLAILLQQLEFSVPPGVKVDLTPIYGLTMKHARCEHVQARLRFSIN
# [3] = target: T2, RNA-binding protein pos-1 (Caenorhabditis elegans, UniProt G5EF15); assay: disruptors of C. elegans POS-1 RNA interaction – biochemical, fluorescence polarization, dose response (AID 1964);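 note: purified POS-1 fused to maltose binding protein made in E. coli; potency of compounds blocking POS-1 binding to fluorescent RNA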
# T2 sequence (G5EF15 whole entry): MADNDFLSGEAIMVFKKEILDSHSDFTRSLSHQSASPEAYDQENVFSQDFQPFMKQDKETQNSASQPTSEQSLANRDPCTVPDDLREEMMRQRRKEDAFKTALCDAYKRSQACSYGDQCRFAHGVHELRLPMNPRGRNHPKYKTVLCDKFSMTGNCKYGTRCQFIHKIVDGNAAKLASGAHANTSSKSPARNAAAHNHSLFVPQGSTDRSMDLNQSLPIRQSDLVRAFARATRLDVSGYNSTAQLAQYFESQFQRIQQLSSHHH
# [4] = target: T3, Zinc finger protein mex-5 (Caenorhabditis elegans, UniProt Q9XUB2); assay: potency of MEX-5 RNA-binding blockers – biochemical, C. elegans, fluorescence polarization, dose response (AID 1960)
# T3 sequence (Q9XUB2 whole entry): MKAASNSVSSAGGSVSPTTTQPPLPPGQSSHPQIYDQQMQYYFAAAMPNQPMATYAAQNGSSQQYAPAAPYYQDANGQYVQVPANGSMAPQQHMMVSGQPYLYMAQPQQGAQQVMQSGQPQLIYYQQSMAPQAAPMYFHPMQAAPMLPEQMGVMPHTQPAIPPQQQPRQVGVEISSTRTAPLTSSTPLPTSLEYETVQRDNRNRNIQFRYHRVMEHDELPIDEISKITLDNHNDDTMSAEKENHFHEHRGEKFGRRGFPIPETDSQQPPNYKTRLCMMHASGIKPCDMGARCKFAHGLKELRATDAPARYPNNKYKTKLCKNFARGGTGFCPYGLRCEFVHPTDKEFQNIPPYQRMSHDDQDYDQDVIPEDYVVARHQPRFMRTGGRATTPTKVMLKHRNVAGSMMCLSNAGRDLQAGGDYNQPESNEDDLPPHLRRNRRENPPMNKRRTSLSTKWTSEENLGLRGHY
# [5] = target: T4, Corticotropin-releasing factor receptor 2/Corticotropin-releasing factor-binding protein (Homo sapiens, UniProt P24387+Q13324); assay: activators of CRF receptor 2 with binding protein – uHTS hits, confirmation (AID 602473); format: functional; details: read-out: EC50_Mean
# T4 sequence (Q13324 whole entry): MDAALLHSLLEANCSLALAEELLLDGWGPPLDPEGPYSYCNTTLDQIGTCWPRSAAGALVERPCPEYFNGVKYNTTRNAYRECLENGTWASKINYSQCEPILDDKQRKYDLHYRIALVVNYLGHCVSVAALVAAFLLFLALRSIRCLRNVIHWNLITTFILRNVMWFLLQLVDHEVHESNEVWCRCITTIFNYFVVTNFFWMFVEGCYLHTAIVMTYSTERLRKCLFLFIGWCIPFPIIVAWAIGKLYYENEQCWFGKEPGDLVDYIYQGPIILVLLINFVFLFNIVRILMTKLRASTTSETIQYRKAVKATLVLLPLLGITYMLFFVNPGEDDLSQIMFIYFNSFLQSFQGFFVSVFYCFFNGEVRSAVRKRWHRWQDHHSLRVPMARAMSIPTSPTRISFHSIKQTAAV
# T4 sequence (P24387 whole entry): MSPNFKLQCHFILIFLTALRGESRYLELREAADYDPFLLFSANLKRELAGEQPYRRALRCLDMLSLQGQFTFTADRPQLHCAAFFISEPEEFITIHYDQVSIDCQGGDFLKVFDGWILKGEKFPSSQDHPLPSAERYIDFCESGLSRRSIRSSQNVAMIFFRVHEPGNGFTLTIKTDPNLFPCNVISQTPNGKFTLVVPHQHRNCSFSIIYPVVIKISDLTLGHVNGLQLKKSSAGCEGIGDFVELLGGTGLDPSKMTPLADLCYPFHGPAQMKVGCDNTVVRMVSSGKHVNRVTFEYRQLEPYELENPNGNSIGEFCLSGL
# [6] = system: Streptococcus sp. 'group A'; assay: Streptococcus pyogenes SK(-)GAS viability under kanamycin – luminescence, BacTiterGlo, confirmation, counter-screen for streptokinase expression inhibitor project, dose response (AID 1900); format: functional, organism-based
# Streptokinase A = target: T5, Streptokinase A (Streptococcus pyogenes serotype M1, UniProt P10520); assay: viability-normalized secreted streptokinase activity reduction – plasminogen activation absorbance, OD405, dose response (AID 1914); format: functional, Streptococcus pyogenes M1 GAS;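 note: secreted streptokinase activity via plasminogen activation per viability signal from cell pellet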
# T5 sequence (P10520 whole entry): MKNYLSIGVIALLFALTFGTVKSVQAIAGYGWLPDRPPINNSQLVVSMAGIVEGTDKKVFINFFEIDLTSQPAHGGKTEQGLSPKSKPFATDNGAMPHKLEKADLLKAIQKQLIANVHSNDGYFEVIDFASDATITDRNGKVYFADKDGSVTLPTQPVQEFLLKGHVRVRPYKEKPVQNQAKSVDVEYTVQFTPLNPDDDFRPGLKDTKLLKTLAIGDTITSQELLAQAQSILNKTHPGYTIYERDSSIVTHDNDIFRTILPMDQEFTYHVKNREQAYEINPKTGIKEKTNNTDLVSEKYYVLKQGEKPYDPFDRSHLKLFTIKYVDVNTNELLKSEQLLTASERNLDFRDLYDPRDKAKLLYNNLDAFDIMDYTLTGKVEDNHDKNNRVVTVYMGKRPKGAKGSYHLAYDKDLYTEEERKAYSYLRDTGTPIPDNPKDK
# Streptococcus = assay: GAS UMAA2166 growth inhibition – luminescence, BacTiterGlo, counter-screen for streptokinase expression inhibitor project, dose response (AID 1915); format: functional, organism-based;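 note: potency for reduction of bacterial viability or growth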
# Sequence of Cytochrome P450 2C19 (P33261 whole entry): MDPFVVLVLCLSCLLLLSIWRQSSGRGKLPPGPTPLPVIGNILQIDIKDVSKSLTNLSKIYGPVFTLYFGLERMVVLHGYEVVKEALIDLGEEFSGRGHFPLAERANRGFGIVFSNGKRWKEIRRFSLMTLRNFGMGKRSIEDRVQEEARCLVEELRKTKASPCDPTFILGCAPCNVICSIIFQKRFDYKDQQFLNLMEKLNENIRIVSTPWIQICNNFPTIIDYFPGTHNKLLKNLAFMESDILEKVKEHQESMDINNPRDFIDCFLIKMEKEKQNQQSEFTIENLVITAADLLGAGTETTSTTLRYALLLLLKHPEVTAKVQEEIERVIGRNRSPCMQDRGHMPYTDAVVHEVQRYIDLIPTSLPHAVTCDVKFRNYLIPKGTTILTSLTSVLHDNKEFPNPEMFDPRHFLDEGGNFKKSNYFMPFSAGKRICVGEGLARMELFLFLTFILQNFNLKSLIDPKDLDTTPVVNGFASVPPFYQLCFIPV
# Sequence of Cytochrome P450 3A4 (P08684 whole entry): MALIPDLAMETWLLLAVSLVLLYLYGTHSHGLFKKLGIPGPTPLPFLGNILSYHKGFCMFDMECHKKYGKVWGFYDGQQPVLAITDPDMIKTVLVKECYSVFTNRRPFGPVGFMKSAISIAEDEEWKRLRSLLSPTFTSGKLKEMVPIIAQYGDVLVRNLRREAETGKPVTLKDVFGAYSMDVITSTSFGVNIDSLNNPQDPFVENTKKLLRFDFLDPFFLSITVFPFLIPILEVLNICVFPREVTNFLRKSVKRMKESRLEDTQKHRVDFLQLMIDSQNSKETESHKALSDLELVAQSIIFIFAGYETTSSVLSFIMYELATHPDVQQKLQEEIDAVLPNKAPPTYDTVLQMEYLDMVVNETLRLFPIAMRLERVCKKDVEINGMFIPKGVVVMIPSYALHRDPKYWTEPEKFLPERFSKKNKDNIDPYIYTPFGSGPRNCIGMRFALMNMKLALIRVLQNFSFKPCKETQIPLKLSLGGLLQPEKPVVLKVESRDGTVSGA
smiles,measurement,setting,value
Cn1cnc([N+](=O)[O-])c1SCC(=O)O,AC50,Cytochrome P450 2C19,inconclusive
COc1ccc(CNC(=O)CN(CC2CCCO2)C(=O)CNS(=O)(=O)c2ccccc2)cc1 (centres undefined),AC50,Cytochrome P450 3A4,3.98 µM (inconclusive)
same,AC50,Cytochrome P450 2C9,22.4 µM (inconclusive)
O=c1cnc2cnc(Oc3ccccc3)nc2n1C1CC1,AC50,Cytochrome P450 2C19; read-out: AC50,39.8 µM (inconclusive)
CC(C)(C)NC(=O)NC(=O)CN1CCCc2ccccc21,EC50,[1],> 150 µM (inactive)
same,EC50,[2],> 38 µM (not active)
Nc1nc(SCc2ccccc2)c2ncn(Cc3ccccc3)c2n1,AC50,Cytochrome P450 1A2,0.251 µM (inconclusive)
same,AC50,Cytochrome P450 3A4,3.98 µM (inconclusive)
same,AC50,Cytochrome P450 2C9,3.16 µM (inconclusive)
CC(=O)N1CCC2(CC1)CN(C(=O)Nc1cccc(C#N)c1)C2,AC50,Cytochrome P450 1A2,12.6 µM (inconclusive)
CN1CCN(C(=O)c2cnn(-c3ccccc3)c2NC(=O)c2ccccc2)CC1,EC50,[1],> 150 µM (inactive)
same,EC50,[2],> 38 µM (not active)
Cc1oc(-c2cccs2)[n+]([O-])c1C,AC50,Cytochrome P450 1A2,25.1 µM (inconclusive)
CN1CCc2nc(N)nc(-c3nc(N)nc4c3CN(C)CC4)c2C1,AC50,Cytochrome P450 2C19,inconclusive
Cc1ccc2c[nH]nc2c1NC(=S)NC(=O)c1ccccc1,AC50,Cytochrome P450 2C19; read-out: AC50,11.2 µM (inconclusive)
O=C(NCc1ccccc1)C(c1ccncc1)N(C(=O)c1csnn1)C1CC1 (centres undefined),AC50,Cytochrome P450 2C9,1.78 µM (inconclusive)
Cc1ccccc1C(C(=O)NC1CCCC1)N(C(=O)Cc1cccs1)c1ccc2c(c1)OCCO2 (centres undefined),AC50,Cytochrome P450 2C9,0.891 µM (inconclusive)
CC(C)c1nc(N2CCN(C(=O)c3ccco3)CC2)c2c3c(sc2n1)CCCC3,EC50,[1],> 150 µM (inactive)
same,EC50,[2],> 38 µM (not active)
CC(C)(C)COS(=O)OCC(C)(C)C,AC50,Cytochrome P450 2C19,inconclusive
Cc1ccc(N/N=C2\COC(C)(C)CC2=O)cc1,EC50,[1],> 160 µM (inactive)
same,EC50,[2],> 38 µM (not active)
COc1cccc(C2C(C(=O)c3ccc(C)cc3)=C(O)C(=O)N2Cc2ccco2)c1 (centres undefined),EC50,[1],> 160 µM (inconclusive)
same,EC50,[2],3.1 µM (active)
CCCc1nnc(NC(=O)c2cccs2)s1,AC50,Cytochrome P450 2C19; read-out: AC50,25.1 µM (inconclusive)
same,AC50,Cytochrome P450 2C9,12.6 µM (inconclusive)
CC(C)OC(=O)C(C#N)c1nc2ccccc2nc1N1CCCC1 (centres undefined),EC50,[3],> 300 µM (not active)
same,EC50,[4],> 300 µM (not active)
Cc1cc2oc(=O)c(CC(=O)NCCCO)c(C)c2c2occ(C(C)(C)C)c12,EC50,[3],> 300 µM (not active)
same,EC50,[4],> 300 µM (not active)
COc1ccc2c3c([nH]c2c1)C1CC2C(CC(O)C(OC)C2C(=O)O)CN1CC3 (centres undefined),EC50,[3],> 300 µM (not active)
same,EC50,[4],> 300 µM (not active)
Cc1ccccc1OCC(=O)Nc1ccc2c(c1)C(=O)c1ccccc1C2=O,EC50,[3],36.1 µM (active)
same,EC50,[4],> 300 µM (not active)
CC(=O)Nc1ccc(N/C=C/C(=O)c2ccc(C)o2)cc1,EC50,[3],> 300 µM (not active)
same,EC50,[4],> 300 µM (not active)
N#Cc1c(NC(=O)CCC(=O)O)ccc2ccccc12,AC50,Cytochrome P450 2C19,inconclusive
COc1ccccc1NC(=O)c1sc2nc(Cc3ccccc3)cc(C(F)(F)F)c2c1N,EC50,[3],9.55 µM (inconclusive)
same,EC50,[4],16.2 µM (active)
same,EC50,[5],6.15 µM (active)
CCOc1cccc(CNCCNC(=O)c2nonc2N)c1,AC50,Cytochrome P450 1A2,39.8 µM (inconclusive)
same,AC50,Cytochrome P450 3A4,5.01 µM (inconclusive)
CCOc1ccc(/C=C2\C(=O)c3ccccc3OC2c2ccccc2)cc1 (centres undefined),AC50,Cytochrome P450 1A2,12.6 µM (inconclusive)
same,AC50,Cytochrome P450 2C9,10 µM (inconclusive)
O=C(c1ccc(Br)s1)N1CCN(c2ccccn2)CC1,EC50,[3],> 300 µM (not active)
same,EC50,[4],> 300 µM (not active)
CCCSc1cc(N2CCCC2)nc(-c2ccccc2)n1,EC50,[6],35 µM (active)
same,EC50,Streptokinase A,> 150 µM (not active)
same,EC50,Streptococcus,> 150 µM (not active)
same,AC50,Cytochrome P450 2C19; read-out: AC50,39.8 µM (inconclusive)
same,AC50,Cytochrome P450 2C9,2 µM (inconclusive)
COc1ccc(-n2c(=O)c(-c3ccc(Cl)cc3)nc3cncnc32)cc1,AC50,Cytochrome P450 1A2,5.01 µM (inconclusive)
N#Cc1c2c(c(-n3cnc4ccccc43)n3c1nc1ccccc13)CCC2,AC50,Cytochrome P450 1A2,25.1 µM (inconclusive)
same,AC50,Cytochrome P450 3A4,3.16 µM (inconclusive)
same,AC50,Cytochrome P450 2C9,10 µM (inconclusive)
CCOC(=O)C1=C(N)Oc2ccc(Br)cc2[C@@H]1[C@@H](C#N)C(=O)OCC,AC50,Cytochrome P450 2C19; read-out: AC50,25.1 µM (inconclusive)
N#CCCn1c(=O)c(-c2cc(F)cc(F)c2)nc2cnc(Nc3ccccc3)nc21,AC50,Cytochrome P450 1A2,3.16 µM (inconclusive)
CCCCOc1ccccc1N,AC50,Cytochrome P450 1A2,39.8 µM (inconclusive)
same,AC50,Cytochrome P450 2C9,39.8 µM (inconclusive)
O=C1CC(N2CCN(C(c3ccccc3)c3ccccc3)CC2)C(=O)N1Cc1ccc(N2CCCC2=O)cc1 (centres undefined),AC50,Cytochrome P450 2C19; read-out: AC50,5.01 µM (inconclusive)
same,AC50,Cytochrome P450 3A4,22.4 µM (inconclusive)
Cc1cc(C(=O)CSC(=S)SC(C)(C)C)ccc1Cl,AC50,Cytochrome P450 3A4,3.16 µM (inconclusive)
same,AC50,Cytochrome P450 2C9,5.01 µM (inconclusive)
COc1cccc(C(C(=O)NC2CCCC2)N(C(=O)c2ccco2)c2ccc(-n3cnnn3)c(C)c2)c1OC (centres undefined),EC50,[1],> 150 µM (inconclusive)
same,EC50,[2],> 38 µM (not active)
CN(C)N1C(N)=C(C#N)C(c2cccnc2)C2=C1CC(C)(C)CC2=O (centres undefined),AC50,Cytochrome P450 2C9,0.0224 µM (inconclusive)
COc1cc(-c2nnc(COC(=O)c3c4c(nc5ccccc35)CCCC4)o2)cc(OC)c1OC,AC50,Cytochrome P450 1A2,14.1 µM (inconclusive)
CCC[C@@H]1C[C@@]1(CCC)C(NC(=O)c1cccs1)c1ccc(Cl)cc1 (some centres undefined),AC50,Cytochrome P450 1A2,10 µM (inconclusive)
same,AC50,Cytochrome P450 2C9,5.01 µM (inconclusive)

# Source: ChEMBL document CHEMBL1201862, “PubChem BioAssay data set” (2004)
